{"source": "PubChem BioAssay (NCI)", "test_in_all_cases": "NCI tumour cell line growth inhibition, 48 h", "key": {"SNB-19 CNS": {"test_system": "SNB-19 CNS"}, "CAKI-1 renal": {"test_system": "CAKI-1 renal"}, "NCI-H460 lung": {"test_system": "NCI-H460 lung"}, "RXF 393 renal": {"test_system": "RXF 393 renal"}, "KM12 colon": {"test_system": "KM12 colon"}, "DMS 273 small cell lung": {"test_system": "DMS 273 small cell lung"}, "HOP-18 NSCLC": {"test_system": "HOP-18 NSCLC"}, "XF 498 CNS": {"test_system": "XF 498 CNS"}, "SR leukemia": {"test_system": "SR leukemia"}, "A549 NSCLC": {"test_system": "A549 NSCLC"}, "LOX IMVI melanoma": {"test_system": "LOX IMVI melanoma"}, "EKVX NSCLC": {"test_system": "EKVX NSCLC"}, "NCI-H522 lung": {"test_system": "NCI-H522 lung"}, "HOP-92 NSCLC": {"test_system": "HOP-92 NSCLC"}, "COLO 205 colon": {"test_system": "COLO 205 colon"}, "HCT-116 colon": {"test_system": "HCT-116 colon"}, "MDA-MB-231 breast": {"test_system": "MDA-MB-231 breast"}, "UO-31 renal": {"test_system": "UO-31 renal"}, "BT-549 breast": {"test_system": "BT-549 breast"}, "HT29 colon": {"test_system": "HT29 colon"}, "M14 melanoma": {"test_system": "M14 melanoma"}, "A498 renal": {"test_system": "A498 renal"}, "MCF7 breast": {"test_system": "MCF7 breast"}, "IGROV1 ovarian": {"test_system": "IGROV1 ovarian"}, "SW-620 colon": {"test_system": "SW-620 colon"}, "UACC-257 melanoma": {"test_system": "UACC-257 melanoma"}, "MDA-MB-435": {"test_system": "MDA-MB-435"}, "SNB-78 CNS": {"test_system": "SNB-78 CNS"}, "CCRF-CEM leukemia": {"test_system": "CCRF-CEM leukemia"}, "HOP-62 NSCLC": {"test_system": "HOP-62 NSCLC"}, "U251 CNS": {"test_system": "U251 CNS"}, "PC-3 prostate": {"test_system": "PC-3 prostate"}, "KM20L2 colon": {"test_system": "KM20L2 colon"}, "P388 leukemia": {"test_system": "P388 leukemia"}, "HS 578T breast": {"test_system": "HS 578T breast"}, "TK-10 renal": {"test_system": "TK-10 renal"}, "786-0 renal": {"test_system": "786-0 renal"}, "HCT-15 colon": {"test_system": "HCT-15 colon"}, "SN12K1 renal": {"test_system": "SN12K1 renal"}, "RPMI-8226 leukemia": {"test_system": "RPMI-8226 leukemia"}, "MALME-3M melanoma": {"test_system": "MALME-3M melanoma"}, "ACHN renal": {"test_system": "ACHN renal"}, "SK-OV-3 ovarian": {"test_system": "SK-OV-3 ovarian"}, "SK-MEL-28 melanoma": {"test_system": "SK-MEL-28 melanoma"}, "NCI-H23 lung": {"test_system": "NCI-H23 lung"}, "OVCAR-8 ovarian": {"test_system": "OVCAR-8 ovarian"}, "OVCAR-5 ovarian": {"test_system": "OVCAR-5 ovarian"}, "OVCAR-4 ovarian": {"test_system": "OVCAR-4 ovarian"}, "P388/ADR leukemia": {"test_system": "P388/ADR leukemia"}, "K-562 leukemia": {"test_system": "K-562 leukemia"}, "SNB-75 CNS": {"test_system": "SNB-75 CNS"}, "DU-145 prostate": {"test_system": "DU-145 prostate"}, "HCC-2998 colon": {"test_system": "HCC-2998 colon"}, "MOLT-4 leukemia": {"test_system": "MOLT-4 leukemia"}, "DLD-1 colon": {"test_system": "DLD-1 colon"}, "SK-MEL-5 melanoma": {"test_system": "SK-MEL-5 melanoma"}, "SK-MEL-2 melanoma": {"test_system": "SK-MEL-2 melanoma"}, "NCI-H226 lung": {"test_system": "NCI-H226 lung"}, "OVCAR-3 ovarian": {"test_system": "OVCAR-3 ovarian"}, "NCI/ADR-RES ovarian": {"test_system": "NCI/ADR-RES ovarian"}, "SN12C renal": {"test_system": "SN12C renal"}, "DMS 114 small cell lung": {"test_system": "DMS 114 small cell lung"}, "SF-295 CNS": {"test_system": "SF-295 CNS"}, "HL-60(TB) leukemia": {"test_system": "HL-60(TB) leukemia"}, "SF-539 CNS": {"test_system": "SF-539 CNS"}, "SF-268 CNS": {"test_system": "SF-268 CNS"}, "UACC-62 melanoma": {"test_system": "UACC-62 melanoma"}}, "note": "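Step 1: Grow cells in 96-well plates. Step 2: Expose to compound for 48 hours at 5 concentrations. Step 3: Interpolate endpoints linearly; if unreached, use highest concentration. Here, GI50 denotes the concentration required for 50% inhibition of growth. TGI denotes the concentration required for complete inhibition of growth.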", "data": [{"smiles": "COc1ccc2[nH]c3c(C)c4ccncc4c(C)c3c2c1", "values": [{"measurement": "TGI", "setting": "SNB-19 CNS", "value": 7830, "unit": "nM"}, {"measurement": "TGI", "setting": "CAKI-1 renal", "value": 5490, "unit": "nM"}, {"measurement": "TGI", "setting": "NCI-H460 lung", "value": 892, "unit": "nM"}, {"measurement": "TGI", "setting": "RXF 393 renal", "value": 477, "unit": "nM"}, {"measurement": "TGI", "setting": "KM12 colon", "value": 1680, "unit": "nM"}, {"measurement": "TGI", "setting": "DMS 273 small cell lung", "value": 1950, "unit": "nM"}, {"measurement": "TGI", "setting": "HOP-18 NSCLC", "value": 6440, "unit": "nM"}, {"measurement": "TGI", "setting": "XF 498 CNS", "value": 6660, "unit": "nM"}, {"measurement": "TGI", "setting": "SR leukemia", "value": 6830, "unit": "nM"}, {"measurement": "TGI", "setting": "A549 NSCLC", "value": 2150, "unit": "nM"}, {"measurement": "TGI", "setting": "LOX IMVI melanoma", "value": 4290, "unit": "nM"}, {"measurement": "TGI", "setting": "EKVX NSCLC", "value": 2710, "unit": "nM"}, {"measurement": "TGI", "setting": "NCI-H522 lung", "value": 2470, "unit": "nM"}, {"measurement": "TGI", "setting": "HOP-92 NSCLC", "value": 935, "unit": "nM"}, {"measurement": "TGI", "setting": "COLO 205 colon", "value": 1600, "unit": "nM"}, {"measurement": "TGI", "setting": "HCT-116 colon", "value": 1500, "unit": "nM"}, {"measurement": "GI50", "setting": "MDA-MB-231 breast", "value": 307, "unit": "nM"}, {"measurement": "TGI", "setting": "MDA-MB-231 breast", "value": 1870, "unit": "nM"}, {"measurement": "TGI", "setting": "UO-31 renal", "value": 4250, "unit": "nM"}, {"measurement": "GI50", "setting": "BT-549 breast", "value": 757, "unit": "nM"}, {"measurement": "TGI", "setting": "BT-549 breast", "value": 2110, "unit": "nM"}, {"measurement": "TGI", "setting": "HT29 colon", "value": 2400, "unit": "nM"}, {"measurement": "GI50", "setting": "M14 melanoma", "value": 290, "unit": "nM"}, {"measurement": "TGI", "setting": "M14 melanoma", "value": 1630, "unit": "nM"}, {"measurement": "TGI", "setting": "A498 renal", "value": 2100, "unit": "nM"}, {"measurement": "TGI", "setting": "MCF7 breast", "value": 2200, "unit": "nM"}, {"measurement": "TGI", "setting": "IGROV1 ovarian", "value": 2410, "unit": "nM"}, {"measurement": "TGI", "setting": "SW-620 colon", "value": 1560, "unit": "nM"}, {"measurement": "TGI", "setting": "UACC-257 melanoma", "value": 8120, "unit": "nM"}, {"measurement": "GI50", "setting": "MDA-MB-435", "value": 208, "unit": "nM"}, {"measurement": "TGI", "setting": "MDA-MB-435", "value": 1670, "unit": "nM"}, {"measurement": "TGI", "setting": "SNB-78 CNS", "value": 11700, "unit": "nM"}, {"measurement": "TGI", "setting": "CCRF-CEM leukemia", "value": 4700, "unit": "nM"}, {"measurement": "TGI", "setting": "HOP-62 NSCLC", "value": 3090, "unit": "nM"}, {"measurement": "TGI", "setting": "U251 CNS", "value": 4190, "unit": "nM"}, {"measurement": "GI50", "setting": "PC-3 prostate", "value": 84.3, "unit": "nM"}, {"measurement": "TGI", "setting": "PC-3 prostate", "value": 2020, "unit": "nM"}, {"measurement": "TGI", "setting": "KM20L2 colon", "value": 7320, "unit": "nM"}, {"measurement": "TGI", "setting": "P388 leukemia", "value": 1870, "unit": "nM"}, {"measurement": "GI50", "setting": "HS 578T breast", "value": 1130, "unit": "nM"}, {"measurement": "TGI", "setting": "HS 578T breast", "value": 3550, "unit": "nM"}, {"measurement": "GI50", "setting": "TK-10 renal", "value": 1120, "unit": "nM"}, {"measurement": "TGI", "setting": "TK-10 renal", "value": 4370, "unit": "nM"}, {"measurement": "GI50", "setting": "786-0 renal", "value": 43.6, "unit": "nM"}, {"measurement": "TGI", "setting": "786-0 renal", "value": 1490, "unit": "nM"}, {"measurement": "TGI", "setting": "HCT-15 colon", "value": 2300, "unit": "nM"}, {"measurement": "TGI", "setting": "SN12K1 renal", "value": 1310, "unit": "nM"}, {"measurement": "TGI", "setting": "RPMI-8226 leukemia", "value": 2730, "unit": "nM"}, {"measurement": "TGI", "setting": "MALME-3M melanoma", "value": 5730, "unit": "nM"}, {"measurement": "GI50", "setting": "ACHN renal", "value": 19.4, "unit": "nM"}, {"measurement": "TGI", "setting": "ACHN renal", "value": 1510, "unit": "nM"}, {"measurement": "TGI", "setting": "SK-OV-3 ovarian", "value": 5160, "unit": "nM"}, {"measurement": "TGI", "setting": "SK-MEL-28 melanoma", "value": 9060, "unit": "nM"}, {"measurement": "TGI", "setting": "NCI-H23 lung", "value": 2100, "unit": "nM"}, {"measurement": "TGI", "setting": "OVCAR-8 ovarian", "value": 1920, "unit": "nM"}, {"measurement": "TGI", "setting": "OVCAR-5 ovarian", "value": 4070, "unit": "nM"}, {"measurement": "TGI", "setting": "OVCAR-4 ovarian", "value": 1580, "unit": "nM"}, {"measurement": "TGI", "setting": "P388/ADR leukemia", "value": 3470, "unit": "nM"}, {"measurement": "TGI", "setting": "K-562 leukemia", "value": 1430, "unit": "nM"}, {"measurement": "TGI", "setting": "SNB-75 CNS", "value": 2770, "unit": "nM"}, {"measurement": "GI50", "setting": "DU-145 prostate", "value": 130, "unit": "nM"}, {"measurement": "TGI", "setting": "DU-145 prostate", "value": 1590, "unit": "nM"}, {"measurement": "TGI", "setting": "HCC-2998 colon", "value": 5570, "unit": "nM"}, {"measurement": "TGI", "setting": "MOLT-4 leukemia", "value": 802, "unit": "nM"}, {"measurement": "TGI", "setting": "DLD-1 colon", "value": 1330, "unit": "nM"}, {"measurement": "TGI", "setting": "SK-MEL-5 melanoma", "value": 2860, "unit": "nM"}, {"measurement": "TGI", "setting": "SK-MEL-2 melanoma", "value": 5360, "unit": "nM"}, {"measurement": "TGI", "setting": "NCI-H226 lung", "value": 3890, "unit": "nM"}, {"measurement": "TGI", "setting": "OVCAR-3 ovarian", "value": 2460, "unit": "nM"}, {"measurement": "TGI", "setting": "NCI/ADR-RES ovarian", "value": 1960, "unit": "nM"}, {"measurement": "TGI", "setting": "SN12C renal", "value": 2540, "unit": "nM"}, {"measurement": "TGI", "setting": "DMS 114 small cell lung", "value": 4490, "unit": "nM"}, {"measurement": "TGI", "setting": "SF-295 CNS", "value": 1260, "unit": "nM"}, {"measurement": "TGI", "setting": "HL-60(TB) leukemia", "value": 2420, "unit": "nM"}, {"measurement": "TGI", "setting": "SF-539 CNS", "value": 1450, "unit": "nM"}, {"measurement": "TGI", "setting": "SF-268 CNS", "value": 4650, "unit": "nM"}, {"measurement": "TGI", "setting": "UACC-62 melanoma", "value": 2540, "unit": "nM"}]}]}
